Among the test systems are P388/ADR leukemia; KM20L2 colon; DMS 273 small cell lung; HOP-18 NSCLC; M19-MEL melanoma; SN12K1 renal; DMS 114 small cell lung; 786-0 renal.
What all share (experiment): NCI tumour cell line growth inhibition, 48 h

Molecules are shown by their SMILES.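 Where inhibition never reached the appropriate level, the endpoint shown equals the highest concentration tested. Otherwise, values were interpolated linearly from a five-concentration, 48-hour dose response in 96-well plates. TGI is the concentration that stops growth completely.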

For the molecule `c1cc2c3c(c1)c1cc4c(cc1c[n+]3CC2)OCO4`, the TGI in the test with P388/ADR leukemia was greater than 225 µM; in the test with KM20L2 colon, 49.7 µM; in the test on DMS 273 small cell lung, 30.5 µM; in the test with HOP-18 NSCLC, 88.4 µM; in the test with M19-MEL melanoma it was 5.21 µM; with SN12K1 renal, 12.2 µM. Moreover, the TGI in the test on DMS 114 small cell lung was found to be 9.27 µM.

On to `c1ccc2c(c1)NCc1cc3ccccc3nc1O2`, for which the TGI with P388/ADR leukemia, in the test with DMS 273 small cell lung, in the test with HOP-18 NSCLC, in the test with M19-MEL melanoma, in the test on SN12K1 renal and in the test on DMS 114 small cell lung was greater than 100 µM in each case.

The molecule `COc1ccc(C2=[S+]C(c3ccccc3)(c3ccccc3)c3ccccc32)cc1` yielded a TGI with 786-0 renal of 34.9 µM.

Take `C/C(=N\NC(=O)c1ccc(Cl)cc1)c1nc2ncccc2[nH]1`: the TGI with 786-0 renal amounted to 55.3 µM.

As for `CCOC(=O)/C=C/c1c(C)[nH]c(=O)[nH]c1=O`, the TGI in the test with P388/ADR leukemia is greater than 158 µM; in the test on KM20L2 colon, greater than 250 µM; in the test with DMS 273 small cell lung, greater than 250 µM; in the test on HOP-18 NSCLC it was greater than 250 µM; in the test on M19-MEL melanoma, greater than 250 µM; with SN12K1 renal, greater than 250 µM. The TGI with DMS 114 small cell lung is greater than 250 µM.

For the molecule `COc1cc(-c2ccc(N=Nc3ccc4c(S(=O)(=O)O)cc(S(=O)(=O)O)c(N)c4c3O)c(OC)c2)ccc1N=Nc1ccc2c(S(=O)(=O)O)cc(S(=O)(=O)O)c(N)c2c1O`, the TGI with P388/ADR leukemia was greater than 100 µM; with KM20L2 colon, greater than 100 µM; with DMS 273 small cell lung it was greater than 100 µM; in the test with HOP-18 NSCLC, 98.1 µM; in the test on M19-MEL melanoma, greater than 100 µM; in the test with SN12K1 renal, greater than 100 µM. This molecule also displayed a TGI in the test on DMS 114 small cell lung greater than 100 µM.

(Values after PubChem BioAssay (NCI).)
